The source of these data is patent publication US5849753A, “Pyridyl imidazole derivatives and processes for the preparation thereof” (Korea Research Institute of Chemical Technology, priority 1994, dated 1998).

Assay [1] has as its system furosemide-administered dogs. The experiment in a line: Duration of action in furosemide-administered dogs. The class given is in vivo, dog. As to conditions: for blood pressure lowering effect with time: 1 mg, per os. On the procedure:
The test dogs were anesthetized with 30 mg/kg of pentobarbital sodium by intravenous injection and the left femoral artery and femoral vein were separated carefully. Silicone catheter, specially prepared and filled with saline treated with heparin(1,000 IU/ml), was cannulated into the blood vessels. After the surgery, the dogs were constrained to measure their blood pressure continuously with Gould 2000 physiograph adapted to a Grass P23 XL pressure transducer; and their heart rates were monitored with ECG/Biotacho amplifier. The dogs were tested at least 2 days after the surgery.
10 mg/kg of furosemide was injected intramuscularly 18 hours(in case of intravenous injection, 2 hours) before the beginning of the test (administration of the test compound) to improve the activity of renin in blood plasma. After the injection of furosemide, neither food nor water was provided. […] The blood pressure and heart rate were measured up to 8 hours after the administration of each test compound.
The compound of Example 8 and the Merck compound were administered orally to the furosemide-administrated dogs as in test 3(i), and blood pressure lowering effect was measured with time.

In another assay the test system is renal hypertensive rat. The experiment in a line: Blood pressure lowering effect in renal hypertension (renal hypertensive rats, intravenous or oral). The class given is in vivo, male Sprague-Dawley rats. To be noted: 3 mg, read-out: Maxium Blood Pressure Lowering Effect(%). Put shortly:
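Renal hypertension induced in male Sprague-Dawley rats by complete left renal artery ligation at 4 weeks of age; rats with systolic pressure above 180 mmHg at 6–8 days were used. Compounds given i.v. (in 0.05N KOH) or p.o. (Tween 80 suspension); blood pressure and heart rate recorded via carotid catheter up to 24 h, compared with losartan.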

The next assay concerns angiotensin II receptor. The assay can be described thus: Angiotensin II Receptor Binding Assay ([3H] angiotensin II binding inhibition). As to conditions: [3H] angiotensin II ligand; 60 minutes, 25° C.; test concentration not given. In a few lines: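 Rat membranes (SD adrenal cortex or medulla, Wistar liver) in 50 mM Tris pH 7.2, 5 mM MgCl2, 0.25% BSA were incubated with [3H]angiotensin II and test compound at graded concentrations for 60 min at 25 °C. Bound radioactivity was collected by GF/C filtration and scintillation counting, and percent binding inhibition was calculated versus untreated and blank.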

Consider `CCCCc1nc2cc(-c3ccccn3)c(C(OC)OC)nc2n1Cc1ccc(-c2ccccc2-c2nnn[nH]2)cc1` [Example 8, 2-butyl-5-dimethoxymethyl-6-(pyridin-2-yl)-3-[2'-(1H-tetrazol-5-yl)-biphenyl-4-ylmethyl]-3H-imidazo[4,5-b]pyridine], for which the “blood pressure lowering effect with time” value in assay [1] (0 min) is given as 0%; in assay [1] (10 min) it was 0%; in assay [1] (20 min), -8%; in assay [1] (30 min) it was -16.2%; in assay [1] (60 min), -23.8%; in assay [1] (90 min), -26.0%. Besides, the “blood pressure lowering effect with time” value in assay [1] (120 min) is reported as -30.0%; in assay [1] (150 min), -31.7%; in assay [1] (180 min) it was -31.7%; in assay [1] (210 min), -31.2%; in assay [1] (240 min), -32.7%; in assay [1] (270 min), -33.9%. The “blood pressure lowering effect with time” value in assay [1] (300 min) was -34.9%; in assay [1] (330 min) it was -37.0%; in assay [1] (360 min) it was -35.5%; in assay [1] (390 min), -36.4%; in assay [1] (420 min), -34.9%; in assay [1] (450 min) it was -33.0%. Moreover, the “blood pressure lowering effect with time” value in assay [1] (480 min) is given as -33.0%. In addition, in assay [1] (furosemide-administered dogs, oral, as shown in Table 6), the “maximum blood pressure lowering effect lasted up to (after the administration)” value is “up to 8 hours”. Further, the change in vivo at 3 mg in the assay on renal hypertensive rat is -50%. In the assay with angiotensin II receptor, the “Binding Inhibition(%)” value is listed as 93.4%.
